Experiments:
IKZF2 ZF2 = IKZF2 ZF2 (Homo sapiens, UniProt Q96SW2+Q9UKS7); experiment: Degradation reporter analysis of IKZF2 ZF2; format: cell-based
[1] = system: endogenous, full-length WIZ; conditions: WSU-DLCL2 and TMD8 cells; cited from earlier work
[2] = biological target: human C2H2 ZF library in HEK293T cells (Homo sapiens, UniProt Q9UKS7); experiment: C2H2 zinc finger library screen; format: cell-based; conditions: 1 μM, 20 hours
[3] = system: human C2H2 ZF library in HEK293T cells; experiment: C2H2 zinc finger library screen; format: cell-based; conditions: FDR <0.01, 5,611 ZFs assayed, 1 μM, 20 hours
[4] = system: ZFs that bound CRBN-pomalidomide in the biochemical assay; format: cell-based, human; conditions: WIZ ZF7, cells
[5] = biological target: CRBN-pomalidomide (Alexa488DDB1ΔB-CRBN-pomalidomide-biotinIKZF1 ZF1-2-3) (Homo sapiens, UniProt Q96SW2)
Chain of CRBN-pomalidomide (Alexa488DDB1ΔB-CRBN-pomalidomide-biotinIKZF1 ZF1-2-3) (Q96SW2 whole entry, stated change not applied): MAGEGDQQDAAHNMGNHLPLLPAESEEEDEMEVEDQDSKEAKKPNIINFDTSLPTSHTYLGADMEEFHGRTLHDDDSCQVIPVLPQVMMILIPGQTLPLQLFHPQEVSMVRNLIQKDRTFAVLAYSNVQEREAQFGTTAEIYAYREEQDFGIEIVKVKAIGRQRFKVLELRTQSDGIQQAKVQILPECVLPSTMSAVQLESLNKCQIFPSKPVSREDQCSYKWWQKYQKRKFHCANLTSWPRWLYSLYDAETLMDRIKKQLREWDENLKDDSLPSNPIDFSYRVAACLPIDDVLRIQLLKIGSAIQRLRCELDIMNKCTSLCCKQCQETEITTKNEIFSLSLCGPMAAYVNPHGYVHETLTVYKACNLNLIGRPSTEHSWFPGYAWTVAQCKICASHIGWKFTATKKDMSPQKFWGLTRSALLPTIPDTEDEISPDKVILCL

Chain of IKZF2 ZF2 (Q9UKS7 140-162 limits assumed): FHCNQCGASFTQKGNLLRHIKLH
Chain of IKZF2 ZF2 (Q96SW2 whole entry): as the sequence (Q96SW2 whole entry, stated change not applied) above
Chain of IKZF2 ZF2 (Q16531 2-1140 partner limits assumed): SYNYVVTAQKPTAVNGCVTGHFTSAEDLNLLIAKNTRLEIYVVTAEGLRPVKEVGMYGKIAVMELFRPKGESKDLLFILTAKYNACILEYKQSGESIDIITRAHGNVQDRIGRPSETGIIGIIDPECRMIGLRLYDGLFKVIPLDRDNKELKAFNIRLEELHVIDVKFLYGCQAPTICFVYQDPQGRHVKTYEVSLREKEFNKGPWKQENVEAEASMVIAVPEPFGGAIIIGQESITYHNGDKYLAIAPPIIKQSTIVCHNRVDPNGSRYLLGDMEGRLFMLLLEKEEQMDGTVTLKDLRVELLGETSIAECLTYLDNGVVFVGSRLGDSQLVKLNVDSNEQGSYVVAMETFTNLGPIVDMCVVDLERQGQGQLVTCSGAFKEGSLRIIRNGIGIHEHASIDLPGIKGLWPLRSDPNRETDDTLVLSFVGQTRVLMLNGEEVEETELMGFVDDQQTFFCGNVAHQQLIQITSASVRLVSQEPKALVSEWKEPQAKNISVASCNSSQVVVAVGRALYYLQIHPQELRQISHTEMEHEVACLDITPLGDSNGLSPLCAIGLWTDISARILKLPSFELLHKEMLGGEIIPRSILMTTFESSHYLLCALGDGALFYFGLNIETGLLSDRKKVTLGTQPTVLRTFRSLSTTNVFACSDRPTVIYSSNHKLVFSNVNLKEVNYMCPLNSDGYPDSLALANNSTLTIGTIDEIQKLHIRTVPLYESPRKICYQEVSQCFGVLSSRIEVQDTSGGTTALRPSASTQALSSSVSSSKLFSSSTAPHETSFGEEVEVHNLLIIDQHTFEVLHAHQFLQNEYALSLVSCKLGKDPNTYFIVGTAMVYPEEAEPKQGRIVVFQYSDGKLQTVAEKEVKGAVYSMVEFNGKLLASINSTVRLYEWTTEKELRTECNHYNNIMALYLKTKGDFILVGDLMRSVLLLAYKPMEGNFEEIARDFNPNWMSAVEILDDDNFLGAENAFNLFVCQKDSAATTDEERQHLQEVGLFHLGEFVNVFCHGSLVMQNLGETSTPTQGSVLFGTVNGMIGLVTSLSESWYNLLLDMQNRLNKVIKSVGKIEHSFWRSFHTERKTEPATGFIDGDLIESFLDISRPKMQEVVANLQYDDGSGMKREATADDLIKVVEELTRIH
Chain of human C2H2 ZF library in HEK293T cells (Homo sapiens, UniProt Q9UKS7) (Q96SW2 whole entry partner): as the sequence (Q96SW2 whole entry, stated change not applied) above

SMILES | degradation of IKZF2 ZF2 (in words) (IKZF2 ZF2) | degradation of endogenous, full-length WIZ [1] | degradation of IKZF2 ZF2 in the C2H2 ZF library screen [2] | degradation of the IKZF2 ZF2 reporter (IKZF2 ZF2; validation experiments) | number of C2H2 ZFs depleted [3] | degradation of WIZ ZF7 in the degradation reporter [4] | factor of decrease in binding affinity, ZF2-ZF1 versus ZF2-ZF3 [5]
Cc1nc2cccc(N)c2c(=O)n1C1CCC(=O)NC1=O (stereo not shown) [CC-122] | not degraded | confirmed degradation |  |  |  |  | 
O=C1CC[C@H](N2Cc3c(OCc4ccc(CN5CCOCC5)cc4)cccc3C2=O)C(=O)N1 [CC-220] | efficiently degraded |  | selectively degraded | more than 40% |  |  | 
Nc1cccc2c1CN(C1CCC(=O)NC1=O)C2=O (stereo not shown) [lenalidomide] |  | confirmed degradation |  |  |  |  | 
Nc1cccc2c1C(=O)N(C1CCC(=O)NC1=O)C2=O (stereo not shown) [pomalidomide] | not degraded |  |  |  | 11 | partial degradation | 6

Source: publication PMC6326779 (Science (New York, N.Y.), 2018)
